Results as given in ChEMBL document CHEMBL1201862, “PubChem BioAssay data set” (2004).
Active and inactive are the calls of the source.

Legend:
[1] = fluconazole-exposed Candida albicans growth modulators – fluorescence, retest, confirmation (AID 2467); format: functional, cell-based
[2] = tested on: Vero; test: mammalian cell viability reduction – secondary assay, cytotoxicity control for West Nile virus antiviral project, dose response (AID 1650); format: functional; settings: Chlorocebus sabaeus
[3] = Vero E6 cell cytotoxicity, dose response, cytotoxicity control for non-replicating M. tuberculosis project, secondary assay (AID 492998); format: functional, VeroE6; settings: Vero C1008
[4] = cells; format: functional, cell-based
[5] = cells; format: functional, cell-based; remark: listed apart in the source
[6] = cells; format: functional
[7] = NIH-3T3 fibroblast cytotoxicity, dose response, cytotoxicity control, cell-based, fluorescence, Alamar Blue, secondary assay (AID 2327); format: functional;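 further: NIH-3T3 mouse fibroblasts cultured with fluconazole at 8 µg/mL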
[8] = HepG2 cell cytotoxicity, dose response, cytotoxicity control for non-replicating M. tuberculosis project (AID 489018); format: functional; settings: Mycobacterium tuberculosis
[9] = tested on: INS1; test: INS-1E survival protection against cytokine death – cell-based, luminescence, retest, dose response (AID 449756); format: functional; settings: Rattus norvegicus;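 further: cell death triggered by IL-1 beta plus TNF-alpha plus IFN-gamma mixture; protective hits raise ATP signal compared with cytokine alone wells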
[10] = THP-1 cell cytotoxicity, dose response, cytotoxicity control for non-replicating M. tuberculosis project (AID 489025); format: functional
[11] = target: Procathepsin L (Homo sapiens, UniProt P07711); test: CTSL1 protease inhibition – biochemical, QFRET, 1536-well, counter-screen for M1/M17 aminopeptidase inhibitor project, dose response (AID 2214)
[12] = target: T1, Zinc finger protein mex-5 (Caenorhabditis elegans, UniProt Q9XUB2); test: potency of MEX-5 RNA-binding blockers – biochemical, C. elegans, fluorescence polarization, dose response (AID 1960)
T1 sequence (Q9XUB2 whole entry): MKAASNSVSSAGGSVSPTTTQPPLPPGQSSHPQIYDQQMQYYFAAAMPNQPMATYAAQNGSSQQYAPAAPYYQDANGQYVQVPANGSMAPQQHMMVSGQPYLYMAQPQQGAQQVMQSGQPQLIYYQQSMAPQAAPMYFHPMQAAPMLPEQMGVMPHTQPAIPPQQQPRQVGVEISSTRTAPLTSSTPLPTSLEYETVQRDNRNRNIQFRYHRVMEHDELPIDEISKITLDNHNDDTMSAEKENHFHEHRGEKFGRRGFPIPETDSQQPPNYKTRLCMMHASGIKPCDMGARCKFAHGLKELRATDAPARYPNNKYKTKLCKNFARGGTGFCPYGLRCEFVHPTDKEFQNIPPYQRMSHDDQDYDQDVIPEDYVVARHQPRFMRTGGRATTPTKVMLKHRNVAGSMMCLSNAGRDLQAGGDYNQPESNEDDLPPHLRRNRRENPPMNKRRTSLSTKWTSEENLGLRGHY

[13] = target: T2, RNA-binding protein pos-1 (Caenorhabditis elegans, UniProt G5EF15); test: disruptors of C. elegans POS-1 RNA interaction – biochemical, fluorescence polarization, dose response (AID 1964);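 further: purified POS-1 fused to maltose binding protein made in E. coli; potency of compounds blocking POS-1 binding to fluorescent RNA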
T2 sequence (G5EF15 whole entry): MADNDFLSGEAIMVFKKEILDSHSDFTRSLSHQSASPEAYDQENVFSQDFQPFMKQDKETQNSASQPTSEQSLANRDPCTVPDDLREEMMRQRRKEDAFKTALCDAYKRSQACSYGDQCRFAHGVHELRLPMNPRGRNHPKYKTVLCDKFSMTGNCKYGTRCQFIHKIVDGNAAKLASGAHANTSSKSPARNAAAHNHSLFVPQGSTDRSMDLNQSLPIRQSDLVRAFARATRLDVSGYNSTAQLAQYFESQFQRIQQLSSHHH

[14] = target: T3, Aminopeptidase N (Plasmodium falciparum FcB1/Columbia, UniProt O96935); test: malaria alanyl aminopeptidase activity blockers – biochemical, fluorogenic H-Leu-NHMec substrate, 1536-well (AID 1445); parameters: species or system Plasmodium falciparum 3D7, 3D7
T3 sequence (O96935 whole entry): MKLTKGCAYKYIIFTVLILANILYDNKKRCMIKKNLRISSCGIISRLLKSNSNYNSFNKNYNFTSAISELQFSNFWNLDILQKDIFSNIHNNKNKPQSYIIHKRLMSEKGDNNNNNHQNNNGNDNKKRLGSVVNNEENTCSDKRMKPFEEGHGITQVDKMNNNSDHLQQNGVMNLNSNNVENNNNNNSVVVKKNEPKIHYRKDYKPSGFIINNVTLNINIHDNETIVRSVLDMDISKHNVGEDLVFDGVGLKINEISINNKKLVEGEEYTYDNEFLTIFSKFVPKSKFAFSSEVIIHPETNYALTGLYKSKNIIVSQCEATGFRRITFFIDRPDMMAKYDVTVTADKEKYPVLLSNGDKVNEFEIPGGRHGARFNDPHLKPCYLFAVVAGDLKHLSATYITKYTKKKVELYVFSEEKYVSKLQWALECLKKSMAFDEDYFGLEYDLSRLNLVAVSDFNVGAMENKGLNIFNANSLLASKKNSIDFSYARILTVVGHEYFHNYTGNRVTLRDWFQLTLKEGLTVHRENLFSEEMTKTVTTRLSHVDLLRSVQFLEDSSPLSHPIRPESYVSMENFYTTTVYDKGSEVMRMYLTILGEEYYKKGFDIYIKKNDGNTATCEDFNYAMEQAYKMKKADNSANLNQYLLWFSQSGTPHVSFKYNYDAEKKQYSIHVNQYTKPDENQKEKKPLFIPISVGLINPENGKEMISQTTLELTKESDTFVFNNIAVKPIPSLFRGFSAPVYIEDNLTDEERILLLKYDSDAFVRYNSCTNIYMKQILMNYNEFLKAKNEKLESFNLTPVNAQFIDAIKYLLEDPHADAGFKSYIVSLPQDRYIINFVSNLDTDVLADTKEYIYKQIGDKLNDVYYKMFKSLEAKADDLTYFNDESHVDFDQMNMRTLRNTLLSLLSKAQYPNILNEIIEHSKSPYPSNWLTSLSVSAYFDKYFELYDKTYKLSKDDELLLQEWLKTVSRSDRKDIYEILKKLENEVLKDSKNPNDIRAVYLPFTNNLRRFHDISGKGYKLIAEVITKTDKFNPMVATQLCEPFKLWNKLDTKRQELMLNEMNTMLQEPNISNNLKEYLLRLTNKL

[15] = target: Aspartyl aminopeptidase (Plasmodium falciparum 3D7, UniProt Q8I2J3); test: Counterscreen for inhibitors of M1 and M17 aminopeptidases: QFRET-based biochemical high throughput dose response assay for inhibitors of the Plasmodium falciparum M18 Aspartyl Aminopeptidase (PFM18AAP). [Related PubChem assays: 1619 (Screening assay (M17LAP inhibitors).), 1445 (Screening assay (M1AAP inhibitors).)]
[16] = target: Induced myeloid leukemia cell differentiation protein Mcl-1 (Homo sapiens, UniProt Q07820); test: blockers of MCL1 binding to BIM peptide – biochemical, fluorescence polarization, BIM-BH3 peptide, 1536-well, dose response (AID 2217)
[17] = target: Genome polyprotein (Hepatitis C virus, UniProt Q2Q167); test: disruption of hepatitis C core self-association – biochemical, TR-FRET, dose response (AID 2159); parameters: species or system Hepacivirus hominis;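 further: blocks dimerization of HCV core protein measured by TR-FRET between tagged core106 pairs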
[18] = target: Bcl-2-like protein 1 (Homo sapiens, UniProt Q07817); test: blockers of BCLXL peptide binding – biochemical, fluorescence polarization, 1536-well, selectivity assay for MCL1 inhibitor project, dose response (AID 2218)
[19] = target: T4, Rac GTPase-activating protein 1 (Homo sapiens, UniProt Q9H0H5); test: blockers of MgcRacGAP-driven Rac1 GTP hydrolysis – biochemical, ADP Hunter fluorescence, primary and confirmatory, confirmation (AID 624330); format: functional
T4 sequence (Q9H0H5 whole entry): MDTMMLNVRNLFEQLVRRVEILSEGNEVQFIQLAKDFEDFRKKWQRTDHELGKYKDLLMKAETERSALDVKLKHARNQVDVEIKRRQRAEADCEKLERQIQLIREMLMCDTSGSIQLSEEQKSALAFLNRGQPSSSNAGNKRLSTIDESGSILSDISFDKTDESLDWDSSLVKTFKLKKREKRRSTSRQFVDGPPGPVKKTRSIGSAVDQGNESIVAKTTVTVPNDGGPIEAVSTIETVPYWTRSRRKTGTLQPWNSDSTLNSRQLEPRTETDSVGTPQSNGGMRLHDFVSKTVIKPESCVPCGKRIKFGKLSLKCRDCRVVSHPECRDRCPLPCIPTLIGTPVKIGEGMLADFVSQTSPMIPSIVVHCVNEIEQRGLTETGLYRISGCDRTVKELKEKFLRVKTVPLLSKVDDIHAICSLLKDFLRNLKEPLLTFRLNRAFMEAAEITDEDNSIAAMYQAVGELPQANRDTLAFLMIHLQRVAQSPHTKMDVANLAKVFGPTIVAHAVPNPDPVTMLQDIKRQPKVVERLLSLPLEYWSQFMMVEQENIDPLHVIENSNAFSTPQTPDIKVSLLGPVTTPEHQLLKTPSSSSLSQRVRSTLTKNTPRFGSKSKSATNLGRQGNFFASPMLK

[20] = target: T5, NADPH oxidase 1 (Homo sapiens, UniProt Q9Y5S8); format: functional, cell-based
T5 sequence (Q9Y5S8 whole entry): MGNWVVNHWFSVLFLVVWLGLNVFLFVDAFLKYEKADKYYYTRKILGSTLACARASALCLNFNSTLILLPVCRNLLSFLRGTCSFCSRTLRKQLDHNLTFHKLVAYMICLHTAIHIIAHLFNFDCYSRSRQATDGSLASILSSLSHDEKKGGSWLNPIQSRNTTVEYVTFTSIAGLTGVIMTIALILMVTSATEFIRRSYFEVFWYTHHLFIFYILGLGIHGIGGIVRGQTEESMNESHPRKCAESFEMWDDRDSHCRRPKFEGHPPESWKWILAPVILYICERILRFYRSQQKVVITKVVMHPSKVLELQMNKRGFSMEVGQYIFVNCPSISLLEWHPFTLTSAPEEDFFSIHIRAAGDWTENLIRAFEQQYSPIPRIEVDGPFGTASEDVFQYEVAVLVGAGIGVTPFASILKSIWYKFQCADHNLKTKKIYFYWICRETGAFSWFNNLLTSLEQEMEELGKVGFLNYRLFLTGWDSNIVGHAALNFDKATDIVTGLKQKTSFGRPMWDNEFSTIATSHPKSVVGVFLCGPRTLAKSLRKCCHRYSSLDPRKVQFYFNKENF

[21] = MIN6 cell viability loss – mouse insulinoma, cytotoxicity control, dose response (AID 2122); format: functional;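 further: confirmatory high-throughput counterscreen run to flag cytotoxic compounds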
[22] = decrease of insulin promoter-GFP reporter – imaging, high-content screening, mouse beta cells (AID 1628); format: functional; settings: MIN6
[23] = target: T5, NADPH oxidase 1; test: Luminescence-based cell-based dose response assay to identify inhibitors of NADPH oxidase 1 (NOX1).; format: functional

Sequence of Induced myeloid leukemia cell differentiation protein Mcl-1 (Q07820 whole entry): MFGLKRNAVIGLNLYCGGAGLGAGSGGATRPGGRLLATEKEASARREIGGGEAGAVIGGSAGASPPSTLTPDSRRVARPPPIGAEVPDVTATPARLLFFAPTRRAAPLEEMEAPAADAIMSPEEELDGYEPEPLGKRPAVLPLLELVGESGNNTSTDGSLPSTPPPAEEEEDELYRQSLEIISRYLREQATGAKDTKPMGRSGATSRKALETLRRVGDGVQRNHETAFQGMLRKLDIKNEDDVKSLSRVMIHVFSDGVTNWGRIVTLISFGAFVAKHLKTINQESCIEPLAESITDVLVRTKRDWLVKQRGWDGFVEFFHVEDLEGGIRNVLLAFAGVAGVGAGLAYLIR
Sequence of Genome polyprotein (Q2Q167 whole entry): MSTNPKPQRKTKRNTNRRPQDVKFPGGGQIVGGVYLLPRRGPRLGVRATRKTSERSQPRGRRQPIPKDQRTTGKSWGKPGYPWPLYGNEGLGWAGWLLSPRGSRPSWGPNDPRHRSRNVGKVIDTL
Sequence of Procathepsin L (P07711 whole entry): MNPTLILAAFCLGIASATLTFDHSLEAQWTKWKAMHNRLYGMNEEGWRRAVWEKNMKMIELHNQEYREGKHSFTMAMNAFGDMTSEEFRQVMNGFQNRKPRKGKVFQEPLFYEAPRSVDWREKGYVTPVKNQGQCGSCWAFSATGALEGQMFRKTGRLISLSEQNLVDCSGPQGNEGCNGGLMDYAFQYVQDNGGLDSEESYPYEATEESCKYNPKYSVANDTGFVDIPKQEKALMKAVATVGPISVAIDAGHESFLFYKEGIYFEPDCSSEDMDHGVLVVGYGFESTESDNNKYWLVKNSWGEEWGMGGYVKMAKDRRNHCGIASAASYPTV
Sequence of Bcl-2-like protein 1 (Q07817 whole entry): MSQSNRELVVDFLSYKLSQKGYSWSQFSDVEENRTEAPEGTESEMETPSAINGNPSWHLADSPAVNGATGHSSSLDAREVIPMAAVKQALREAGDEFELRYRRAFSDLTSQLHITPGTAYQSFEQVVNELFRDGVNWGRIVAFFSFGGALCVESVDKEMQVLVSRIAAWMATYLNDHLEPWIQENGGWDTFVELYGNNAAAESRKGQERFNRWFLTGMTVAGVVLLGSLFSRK
Sequence of Aspartyl aminopeptidase (Q8I2J3 whole entry): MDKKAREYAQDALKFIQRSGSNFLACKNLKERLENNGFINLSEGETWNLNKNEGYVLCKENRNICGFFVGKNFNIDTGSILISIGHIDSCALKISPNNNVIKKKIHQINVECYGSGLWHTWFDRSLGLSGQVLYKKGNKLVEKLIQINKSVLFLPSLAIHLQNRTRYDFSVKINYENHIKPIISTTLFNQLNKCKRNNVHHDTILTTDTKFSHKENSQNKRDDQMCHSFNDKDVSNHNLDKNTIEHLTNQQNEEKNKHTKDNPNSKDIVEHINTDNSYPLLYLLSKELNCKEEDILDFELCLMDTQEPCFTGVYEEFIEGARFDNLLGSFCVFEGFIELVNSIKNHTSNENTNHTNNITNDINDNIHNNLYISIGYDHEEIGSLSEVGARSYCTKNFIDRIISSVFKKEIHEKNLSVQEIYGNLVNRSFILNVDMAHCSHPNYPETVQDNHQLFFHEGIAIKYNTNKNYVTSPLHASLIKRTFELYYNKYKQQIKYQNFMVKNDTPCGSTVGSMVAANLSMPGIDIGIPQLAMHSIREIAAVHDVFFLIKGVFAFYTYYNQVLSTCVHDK

O=C(N/N=C(\c1ccccc1)c1ccccn1)c1cccc([N+](=O)[O-])c1
EC50 [1]: 3.75 µM (active) | CC50 [2]: 1.73 µM (active) | CC50 [3]: 1.61 µM (active) | EC50 [4]: 4.64 µM (active) | EC50 [5]: > 350 µM (not active) | IC50 [6]: 1.06 µM (active) | EC50 [7]: 155 µM (inconclusive) | CC50 [8]: 6.88 µM (active) | AC50 [9]: 0.535 µM (active) | CC50 [10]: 0.394 µM (active)

O=C(NCc1cccs1)C1CCN(S(=O)(=O)c2ccc(Br)s2)CC1
IC50 [11]: > 59.6 µM (not active) | EC50 [12]: > 300 µM (not active) | EC50 [13]: > 300 µM (not active) | IC50 [14]: 4.67 µM (active) | IC50 [15]: > 73.5 µM (not active)

COc1ccc(NC(=O)CN(C)C(=O)c2cc3c(s2)CCC3)cc1
IC50 [16]: 7.31 µM (active) | IC50 [17]: 42.6 µM (not active) | IC50 [18]: > 109 µM (not active)

COc1ccc2c(c1)Sc1ccccc1N2
IC50 [19]: 28.8 µM (active) | IC50 [20]: 0.935 µM (active) | IC50 [21]: 1.63 µM (active) | IC50 [22]: 2.01 µM (active) | IC50 [23]: > 20 µM (not active)
